{"source": "patent US6335339B1", "about": "“Triazine antiviral compounds” (Scriptgen Pharmaceuticals, Inc., priority 1998, dated 2002)", "tested_on": "HBV εRNA", "assay": "εRNA/oligonucleotide hybridization inhibition assay with rRNA competitor", "type": "binding, Hepatitis B virus", "conditions": "for IC50: radiolabeled εRNA, 60-fold excess rRNA competitor; for Specificity: ratio RRE+rRNA IC50/εRNA+rRNA IC50, max = inactive in RRE assay", "procedure,_shortened": "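Inhibition of hybridization between 25 nM [32P]-εRNA and 100 nM biotinylated complementary oligonucleotide (50 mM Tris-HCl pH 7.5, 200 mM KCl, 5 mM MgCl2, 60 min, 25 °C), hybrids captured by streptavidin filter and counted. Titrations 0.1-200 μM with 60-fold excess rRNA; specificity = RRE+rRNA IC50/εRNA+rRNA IC50.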"}
{"smiles": "C(=NNc1nc(Nc2ccccc2)nc(N2CCCCC2)n1)c1ccccc1", "note": "[Compound 3]", "values": [{"measurement": "IC50", "result": 66.9, "unit": "µM"}, {"measurement": "Specificity", "result": "max."}]}
{"smiles": "Cc1[nH]c2ccccc2c1C=NNc1nc(Nc2ccccc2)nc(N2CCOCC2)n1", "note": "[Compound 4]", "values": [{"measurement": "IC50", "result": 16.3, "unit": "µM"}, {"measurement": "Specificity", "result": "max."}]}
{"smiles": "FC(F)(F)c1cccc(Nc2nc(Nc3cccc(Br)c3)nc(N3CCOCC3)n2)c1", "note": "[Compound 38]", "values": [{"measurement": "IC50", "result": 34.9, "unit": "µM"}, {"measurement": "Specificity", "result": "max."}]}
{"smiles": "CCCCN(CCCC)c1nc(NN=Cc2c[nH]c3ccccc23)nc(Nc2ccc([N+](=O)[O-])cc2)n1", "note": "[Compound 39]", "values": [{"measurement": "IC50", "result": 39.9, "unit": "µM"}, {"measurement": "Specificity", "result": "max."}]}
{"smiles": "Cc1ccc(Nc2nc(NN=Cc3ccc(Cl)c(Cl)c3)nc(Nc3ccccc3)n2)c(C)c1", "note": "[Compound 40]", "values": [{"measurement": "IC50", "result": 21.9, "unit": "µM"}, {"measurement": "Specificity", "result": "max."}]}
{"smiles": "O=[N+]([O-])c1ccc(Nc2nc(N/N=C/c3cccc(Cl)c3)nc(N3CCCCC3)n2)cc1", "note": "[Compound 41]", "values": [{"measurement": "IC50", "result": 24.9, "unit": "µM"}, {"measurement": "Specificity", "result": "max."}]}
{"smiles": "Cc1ccc(Nc2nc(NN=Cc3ccc(Cl)cc3)nc(Nc3ccccc3)n2)c(C)c1", "note": "[Compound 42]", "values": [{"measurement": "IC50", "result": 30, "unit": "µM"}, {"measurement": "Specificity", "result": "max."}]}
{"smiles": "Brc1cc2c(cc1C=NNc1nc(NCc3ccccc3)nc(Nc3ccccc3)n1)OCO2", "note": "[Compound 43]", "values": [{"measurement": "IC50", "result": 30.1, "unit": "µM"}, {"measurement": "Specificity", "result": "max."}]}
{"smiles": "COc1ccc(C=NNc2nc(Nc3ccc([N+](=O)[O-])cc3)nc(N3CCCCC3)n2)cc1", "note": "[Compound 44]", "values": [{"measurement": "IC50", "result": 35, "unit": "µM"}, {"measurement": "Specificity", "result": "max."}]}
{"smiles": "O=[N+]([O-])c1ccc(C=NNc2nc(Nc3ccccc3)nc(NC3CCCCC3)n2)cc1", "note": "[Compound 46]", "values": [{"measurement": "IC50", "result": 23.1, "unit": "µM"}, {"measurement": "Specificity", "result": "max."}]}
{"smiles": "Cc1ccc(Nc2nc(NN=Cc3cccc(Br)c3)nc(Nc3ccccc3)n2)c(C)c1", "note": "[Compound 49]", "values": [{"measurement": "IC50", "result": 35, "unit": "µM"}, {"measurement": "Specificity", "result": "max."}]}
{"smiles": "Cc1[nH]c2ccccc2c1C=NNc1nc(NCc2ccccc2)nc(Nc2ccccc2)n1", "note": "[Compound 50]", "values": [{"measurement": "IC50", "result": 39.9, "unit": "µM"}, {"measurement": "Specificity", "result": "max."}]}
{"smiles": "Cc1ccc(Nc2nc(NN=Cc3ccc4c(c3)OCO4)nc(Nc3ccccc3)n2)c(C)c1", "note": "[Compound 51]", "values": [{"measurement": "IC50", "result": 39.9, "unit": "µM"}, {"measurement": "Specificity", "result": "max."}]}
{"smiles": "O=[N+]([O-])c1cc(C=NNc2nc(Nc3ccccc3)nc(N3CCOCC3)n2)ccc1Cl", "note": "[Compound 52]", "values": [{"measurement": "IC50", "result": 66, "unit": "µM"}, {"measurement": "Specificity", "result": "max."}]}
{"smiles": "Oc1ccc(Nc2nc(Nc3cccc(C(F)(F)F)c3)nc(N3CCOCC3)n2)cc1", "note": "[Compound 53]", "values": [{"measurement": "IC50", "result": 70.1, "unit": "µM"}, {"measurement": "Specificity", "result": "max."}]}
{"smiles": "CC(C)c1ccc(C=NNc2nc(Nc3ccc([N+](=O)[O-])cc3)nc(N3CCCCCC3)n2)cc1", "note": "[Compound 56]", "values": [{"measurement": "IC50", "result": 42.1, "unit": "µM"}, {"measurement": "Specificity", "result": "max."}]}
{"smiles": "COc1ccc(C=NNc2nc(Nc3ccccc3)nc(Nc3ccc(C)cc3C)n2)c(OC)c1", "note": "[Compound 61]", "values": [{"measurement": "IC50", "result": 42.6, "unit": "µM"}, {"measurement": "Specificity", "result": "max."}]}
{"smiles": "CC(C)c1ccc(C=NNc2nc(Nc3ccc([N+](=O)[O-])cc3)nc(N3CCCCC3)n2)cc1", "note": "[Compound 62]", "values": [{"measurement": "IC50", "result": 54.3, "unit": "µM"}, {"measurement": "Specificity", "result": "max."}]}
{"smiles": "CCN(CC)c1nc(N/N=C/c2ccc([N+](=O)[O-])cc2)nc(Nc2cc(C)ccc2C)n1", "note": "[Compound 63]", "values": [{"measurement": "IC50", "result": 69, "unit": "µM"}, {"measurement": "Specificity", "result": "max."}]}
{"smiles": "CNc1nc(NN=Cc2ccccc2[N+](=O)[O-])nc(Nc2ccccc2)n1", "note": "[Compound 65]", "values": [{"measurement": "IC50", "result": 99.9, "unit": "µM"}, {"measurement": "Specificity", "result": "max."}]}
{"smiles": "CC(C)(C)Nc1nc(NCc2ccccc2)nc(NN=Cc2ccc3c(c2)OCO3)n1", "note": "[Compound 67]", "values": [{"measurement": "IC50", "result": 47.7, "unit": "µM"}, {"measurement": "Specificity", "result": "max."}]}
{"smiles": "CCN(CC)c1nc(NN=Cc2ccc(F)cc2)nc(Nc2ccc([N+](=O)[O-])cc2)n1", "note": "[Compound 68]", "values": [{"measurement": "IC50", "result": 33, "unit": "µM"}, {"measurement": "Specificity", "result": "max."}]}
{"smiles": "CCCCN(CCCC)c1nc(NN=C(C)c2ccccc2)nc(Nc2ccc([N+](=O)[O-])cc2)n1", "note": "[Compound 74]", "values": [{"measurement": "IC50", "result": 126, "unit": "µM"}, {"measurement": "Specificity", "result": "max."}]}
{"smiles": "CCN(CC)c1nc(NN=Cc2cc([N+](=O)[O-])ccc2OC)nc(Nc2cc(C)ccc2C)n1", "note": "[Compound 85]", "values": [{"measurement": "IC50", "result": 53.8, "unit": "µM"}, {"measurement": "Specificity", "result": "max."}]}
{"smiles": "Cc1[nH]c2ccccc2c1C=NNc1nc(Nc2ccccc2)nc(N2CCCCC2)n1", "note": "[Compound 88]", "values": [{"measurement": "IC50", "result": 11.7, "unit": "µM"}, {"measurement": "Specificity", "result": 80.2}]}
{"smiles": "C(=Cc1ccccc1)C=NNc1nc(NCc2ccccc2)nc(Nc2ccccc2)n1", "note": "[Compound 91]", "values": [{"measurement": "IC50", "result": 17.1, "unit": "µM"}, {"measurement": "Specificity", "result": 46.8}]}
{"smiles": "CC(C)(C)Nc1nc(NCc2ccccc2)nc(N/N=C/c2ccccc2F)n1", "note": "[Compound 93, 2-fluorobenzaldehyde N-[4-(benzylamino)-6-(tert-butylamino)-1,3,5-triazin-2-yl]hydrazone]", "values": [{"measurement": "IC50", "result": 12.7, "unit": "µM"}, {"measurement": "Specificity", "result": "max"}]}
{"smiles": "COc1ccccc1C=NNc1nc(Nc2ccc([N+](=O)[O-])cc2)nc(Nc2ccc(C)c(C)c2)n1", "note": "[Compound 94]", "values": [{"measurement": "IC50", "result": 12, "unit": "µM"}, {"measurement": "Specificity", "result": 20.8}]}
